Assay results reported in patent US20120214847A1, “2-[1-PHENYL-5-HYDROXY-4a-SUBSTITUTED-HEXAHYDROCYCLOPENTA[F]INDAZOL-5-YL]ETHYL PHENYL DERIVATIVES AS GLUCOCORTICOID RECEPTOR LIGANDS” (Merck Sharp & Dohme Corp., priority 2009, published 2012).
pKi: −log10 of the molar value.

target: T1, glucocorticoid receptor (Homo sapiens, UniProt P04150); experiment: Ligand binding assay (GRBind), 3H-dexamethasone displacement in HeLa cell lysate; details: 3H-DEX tracer
T1 construct: endogenous in cells; host or cells: HeLa (ATCC) cell lysate supernatant
T1 sequence (P04150 1-777): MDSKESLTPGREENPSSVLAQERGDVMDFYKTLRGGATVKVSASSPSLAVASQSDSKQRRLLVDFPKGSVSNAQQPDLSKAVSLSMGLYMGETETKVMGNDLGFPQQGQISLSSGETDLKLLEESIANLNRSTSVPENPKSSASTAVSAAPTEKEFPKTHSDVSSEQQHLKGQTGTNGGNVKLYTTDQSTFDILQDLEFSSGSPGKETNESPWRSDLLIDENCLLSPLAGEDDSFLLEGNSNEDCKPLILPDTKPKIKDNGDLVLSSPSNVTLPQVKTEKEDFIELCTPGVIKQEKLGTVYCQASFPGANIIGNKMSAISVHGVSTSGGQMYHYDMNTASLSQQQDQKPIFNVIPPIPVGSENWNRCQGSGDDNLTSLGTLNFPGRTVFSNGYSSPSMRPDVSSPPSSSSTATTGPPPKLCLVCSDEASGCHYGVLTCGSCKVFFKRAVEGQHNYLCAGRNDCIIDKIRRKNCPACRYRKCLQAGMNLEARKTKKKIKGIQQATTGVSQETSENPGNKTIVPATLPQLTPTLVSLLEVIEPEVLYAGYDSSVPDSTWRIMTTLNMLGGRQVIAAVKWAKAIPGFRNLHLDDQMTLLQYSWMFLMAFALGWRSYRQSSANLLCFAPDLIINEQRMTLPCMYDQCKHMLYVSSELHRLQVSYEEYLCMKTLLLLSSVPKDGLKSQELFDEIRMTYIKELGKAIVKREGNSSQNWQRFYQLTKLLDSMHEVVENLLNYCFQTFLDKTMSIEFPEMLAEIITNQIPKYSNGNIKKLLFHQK
Protocol: Binding Buffer: TEGM (10 mM Tris-HCl, 1 mM EDTA, 10% glycerol, 1 mM betamecaptoethanol, 10 mM Sodium Molybdate, pH 7.2)
50% HAP Slurry: Calbiochem Hydroxylapatite, Fast Flow, in 10 mM Tris, pH 8.0 and 1 mM EDTA.
Wash Buffer: 40 mM Tris, pH7.5, 100 mM KCl, 1 mM EDTA and 1 mM EGTA. 95% EtOH Dexmethasone-methyl-3H, (DEXA*); (Amersham cat#TRK645) Dexamethasone(DEX) (Sigma, cat#01756):
Hydroxylapatite Fast Flow; Calbiochem Cat#391947
25 Molybdate=Molybdic Acid (Sigma, M1651)
5 Cells (Hall R. E., et al., European Journal of Cancer, 30A: 484-490 (1994)) HeLa (ATCC) cultured in RPMI 1640 (Gibed 11835-055) containing 20 mM Hepes, 4 mM L-glu, 10 ug/ml of human insulin (Sigma, 1-0259), 10% FBS and 20 uglml of Gentamicin (Gibco#15710072) are rinsed twice in PBS. Phenol red-free Trypsin-EDTA is diluted in the same PBS 1:10. The cell layers are rinsed with IX Trypsin, extra Trypsin is poured out, and the cell layers are incubated at 37° C. for 2 min. The flask is tapped and checked for signs of cell detachment. Once the cells begin to slide off the flask, the complete media is added. The cells are counted at this point, then diluted to the appropriate concentration and split into flasks or dishes for further culturing (Usually 1:3 to 1:6 dilution).
Preparation of HeLa Cell Lysate
When the cells are 70 to 85% confluent, they are detached as described above, and collected by centrifuging at 1000 g for 10 min at 4° C. The cell pellet is washed twice with TEGM (10 mM Tris-HCl, 1 mM EDTA, 10% glycerol, 1 mM beta-mercaptoethanol, 10 mM Sodium Molybdate, pH 7.2). After the final wash, the cells are resuspended in TEGM at a concentration of 10^7 cells/mL. The cell suspension is snap frozen in liquid nitrogen or ethanol/dry ice bath and transferred to −80° C. freezer on dry ice. Before setting up the binding assay, the frozen samples are left on ice-water to just thaw. Then the samples are centrifuged at 12,500 g to 20,000 g for 30 min at 4° C. The supernatant is used to set-up assay right away. If using 50 μL of supernatant, the test compound can be prepared in 50 μL of the TEGM buffer.
Procedure for Multiple Compound Screening
1×TEGM buffer is prepared, and the isotope-containing assay mixture is prepared in the following order: EtOH (2% final concentration in reaction), 3H-DEX (Amersham Biosciences) and 1×TEGM. [e.g. For 100 samples, 200 JlL (100×2) of EtOH+4.25 JlL of 1:10 ^3H-Dex stock+2300 μL (100×23) 1×TEGM]. The compound is serially diluted, e.g., if starting final conc. is 1 μM, and the compound is in 25 μL of solution, for duplicate samples, 75 μL of 4×1 μM solution is made and 3 μL of 100). 1M is added to 72 μL of buffer, and 1:5 serial dilution.
25 μL of ^3H-DEX (6 nM) trace and 25 μL, compound solution are first mixed together, followed by addition of 50 μL receptor solution. The reaction is gently mixed, spun briefly at about 200 rpm and incubated at 4° C. overnight. 100 μL of 50% HAP slurry is prepared and added to the incubated reaction which is then vortexed and incubated on ice for 5 to 10 min. The reaction mixture is vortexed twice more to resuspend HAP while incubating reaction. The samples in 96-well format are then washed in wash buffer using the FilterMate™ Universal Harvester plate washer (Packard). The washing process transfers HAP pellet containing ligand-bound expressed receptor to Unifilter-96 GFIB filter plate (Packard). The HAP pellet on the filter plate is incubated with […] of MICROSCINT (Packard) scintillant for 30 min before being counted on the TopCount microscintillation counter (Packard). IC50s are calculated using DEX as a reference.

| Structure (SMILES) | pKi |
| --- | --- |
| CC[C@]12Cc3cnn(-c4ccc(F)cc4)c3C=C1CC[C@@]2(O)CCc1ccc(F)cn1 [Example 19, (4aS,5R)-4a-Ethyl-1-(4-fluorophenyl)-5-[2-(5-fluoropyridin-2-yl)ethyl]-1,4,4a,5,6,7-hexahydrocyclopenta[f]indazol-5-ol] | 8.60 |
| CC[C@]12Cc3cnn(-c4ccccc4)c3C=C1CC[C@@]2(O)CCc1ccccc1C(N)=O [Example 20, 2-{2-[(4aS,5R)-4a-Ethyl-5-hydroxy-1-phenyl-1,4,4a,5,6,7-hexahydrocyclopenta[f]indazol-5-yl]ethyl}benzamide] | 8.60 |
| CC[C@]12Cc3cnn(-c4ccc(F)cc4)c3C=C1CC[C@@]2(O)CCc1cncc(F)c1 [Example 21, (4aS,5R)-4a-Ethyl-1-(4-fluorophenyl)-5-[2-(5-fluoropyridin-3-yl)ethyl]-1,4,4a,5,6,7-hexahydrocyclopenta[f]indazol-5-ol] | 8.98 |
| CC[C@]12Cc3cnn(-c4ccc(F)cc4)c3C=C1CC[C@@]2(O)CCc1ccccc1CCC(N)=O [Example 22, 3-(2-{2-[(4aS,5R)-4a-Ethyl-1-(4-fluorophenyl)-5-hydroxy-1,4,4a,5,6,7-hexahydrocyclopenta[f]indazol-5-yl]ethyl}phenyl)propanamide] | 8.83 |
| NC(=O)c1ccccc1CC[C@]1(O)CCC2=Cc3c(cnn3-c3ccc(F)cc3)C[C@@]21C1CC1 [Example 23, 2-{2-[(4aR,5R)-4a-Cyclopropyl-1-(4-fluorophenyl)-5-hydroxy-1,4,4a,5,6,7-hexahydrocyclopenta[f]indazol-5-yl]ethyl}benzamide] | 8.74 |
| NS(=O)(=O)c1ccccc1CC[C@]1(O)CCC2=Cc3c(cnn3-c3cccnc3)C[C@@]21C1CC1 [Example 24, 2-{2-[(4aR,5R)-4a-Cyclopropyl-5-hydroxy-1-(pyridin-3-yl)-1,4,4a,5,6,7-hexahydrocyclopenta[f]indazol-5-yl]ethyl}benzenesulfonamide] | 8.66 |
| CC[C@]12Cc3cnn(-c4ccc(F)cc4)c3C=C1CC[C@@]2(O)CCc1ccccc1C(O)C(N)=O (stereo partly drawn) [Example 25, 2-(2-{2-[(4aS,5R)-4a-Ethyl-1-(4-fluorophenyl)-5-hydroxy-1,4,4a,5,6,7-hexahydrocyclopenta[f]indazol-5-yl]ethyl}phenyl)-2-hydroxyacetamide] | 8.49 |
| N#Cc1c(F)cccc1CC[C@]1(O)CCC2=Cc3c(cnn3-c3ccccc3)C[C@@]21C1CC1 [Example 28, 2-{2-[(4aR,5R)-4a-Cyclopropyl-5-hydroxy-1-phenyl-1,4,4a,5,6,7-hexahydrocyclopenta[f]indazol-5-yl]ethyl}-6-fluorobenzonitrile] | 8.91 |
| NC(=O)c1ccccc1CC[C@]1(O)CCC2=Cc3c(cnn3-c3ccccc3)C[C@@]21C1CC1 [Example 29, 2-{2-[(4aR,5R)-4a-Cyclopropyl-5-hydroxy-1-phenyl-1,4,4a,5,6,7-hexahydrocyclopenta[f]indazol-5-yl]ethyl}benzamide] | 8.64 |
| N#Cc1cccnc1CC[C@]1(O)CCC2=Cc3c(cnn3-c3ccc(F)cc3)C[C@@]21C1CC1 [Example 31, 2-{2-[(4aR,5R)-4a-Cyclopropyl-1-(4-fluorophenyl)-5-hydroxy-1,4,4a,5,6,7-hexahydrocyclopenta[f]indazol-5-yl]ethyl}pyridine-3-carbonitrile] | 8.80 |
| O[C@@]1(CCc2cc(C(F)(F)F)ccn2)CCC2=Cc3c(cnn3-c3ccc(F)cc3)C[C@@]21C1CC1 [Example 32, (4aR,5R)-4a-Cyclopropyl-1-(4-fluorophenyl)-5-{2-[4-(trifluoromethyl)pyridin-2-yl]ethyl}-1,4,4a,5,6,7-hexahydrocyclopenta[f]indazol-5-ol] | 8.65 |
| CC[C@]12Cc3cnn(-c4ccc(F)cc4)c3C=C1CC[C@@]2(O)CCc1cc(C)ccn1 [Example 33, (4aS,5R)-4a-Ethyl-1-(4-fluorophenyl)-5-[2-(4-methylpyridin-2-yl)ethyl]-1,4,4a,5,6,7-hexahydrocyclopenta[f]indazol-5-ol] | 8.63 |
| CC[C@]12Cc3cnn(-c4ccc(F)cc4)c3C=C1CC[C@@]2(O)CCc1cccc(OC)c1C(N)=O [Example 37, 2-{2-[(4aS,5R)-4a-Ethyl-1-(4-fluorophenyl)-5-hydroxy-1,4,4a,5,6,7-hexahydrocyclopenta[f]indazol-5-yl]ethyl}-6-methoxybenzamide] | 8.69 |

Results, then the molecule that gave them:

| pKi | Structure (SMILES) |
| --- | --- |
| 8.42 | CC[C@]12Cc3cnn(-c4ccc(F)cc4)c3C=C1CC[C@@]2(O)CCc1ccccc1C(O)C(N)=O (stereo partly drawn) [Example 26, 2-(2-{2-[(4aS,5R)-4a-Ethyl-1-(4-fluorophenyl)-5-hydroxy-1,4,4a,5,6,7-hexahydrocyclopenta[f]indazol-5-yl]ethyl}phenyl)-2-hydroxyacetamide] |
| 9.00 | N#Cc1ccccc1CC[C@]1(O)CCC2=Cc3c(cnn3-c3ccccc3)C[C@@]21C1CC1 [Example 27, 2-{2-[(4aR,5R)-4a-Cyclopropyl-5-hydroxy-1-phenyl-1,4,4a,5,6,7-hexahydrocyclopenta[f]indazol-5-yl]ethyl}benzonitrile] |
| 8.87 | N#Cc1ccccc1CC[C@]1(O)CCC2=Cc3c(cnn3-c3cccnc3)C[C@@]21C1CC1 [Example 30, 2-{2-[(4aR,5R)-4a-Cyclopropyl-5-hydroxy-1-(pyridin-3-yl)-1,4,4a,5,6,7-hexahydrocyclopenta[f]indazol-5-yl]ethyl}benzonitrile] |
| 8.65 | CC[C@]12Cc3cnn(-c4ccc(F)cc4)c3C=C1CC[C@@]2(O)CCc1cc(C(F)(F)F)ccn1 [Example 34, (4aS,5R)-4a-Ethyl-1-(4-fluorophenyl)-5-{2-[4-(trifluoromethyl)pyridin-2-yl]ethyl}-1,4,4a,5,6,7-hexahydrocyclopenta[f]indazol-5-ol] |
| 8.70 | N#Cc1ccnc(CC[C@]2(O)CCC3=Cc4c(cnn4-c4ccc(F)cc4)C[C@@]32C2CC2)c1 [Example 35, 2-{2-[(4aR,5R)-4a-Cyclopropyl-1-(4-fluorophenyl)-5-hydroxy-1,4,4a,5,6,7-hexahydrocyclopenta[f]indazol-5-yl]ethyl}pyridine-4-carbonitrile] |
| 8.79 | Cc1ccnc(CC[C@]2(O)CCC3=Cc4c(cnn4-c4ccc(F)cc4)C[C@@]32C2CC2)c1 [Example 36, (4aR,5R)-4a-Cyclopropyl-1-(4-fluorophenyl)-5-[2-(4-methylpyridin-2-yl)ethyl]-1,4,4a,5,6,7-hexahydrocyclopenta[f]indazol-5-ol] |
